For 28 compounds, EC50 results are on record in patent US20220119355A1, “SATURATED-RING-FUSED DIHYDROPYRIMIDINONE OR DIHYDROTRIAZINONE COMPOUNDS AND PHARMACEUTICAL USE THEREOF” (Japan Tobacco Inc., priority 2018, published 2022).

Molecules are shown by their SMILES.

Experiment [1] has as its target T1, human RORγ (Homo sapiens, UniProt P51449).
T1 construct: from Ser253 to Lys518 for human RORγ; expressed in transfected cells; host or cells: CHO cells (transient co-transfection with pG5-Luc)
T1 sequence (P51449 253-518): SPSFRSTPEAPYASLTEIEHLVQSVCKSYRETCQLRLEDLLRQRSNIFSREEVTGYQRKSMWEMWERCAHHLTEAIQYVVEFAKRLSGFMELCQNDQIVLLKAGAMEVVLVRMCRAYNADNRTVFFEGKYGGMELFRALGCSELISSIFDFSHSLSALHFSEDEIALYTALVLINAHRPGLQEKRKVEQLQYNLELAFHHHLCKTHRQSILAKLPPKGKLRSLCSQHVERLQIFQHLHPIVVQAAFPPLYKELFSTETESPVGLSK
Description: In-vitro reporter gene assay for inhibitory activity against RORγ transcription, Test Method A (GAL4-hRORγ LBD / pG5-Luc in CHO cells). Particulars: luciferase reporter, 2 days. It counts as cell-based. The method, then:
(§1) In-Vitro Assay for Inhibitory Activity Against RORγ Transcription
(§2) Inhibitory activity against RORγ transcription was assessed for test compounds by either of the following Test Method A or B of reporter gene assay.
(§3) cDNAs encoding human and mouse RORγ ligand binding domains (LBD) were obtained based on the sequences of human RORγ (Genbank registered number NM_005060.3) and mouse RORγ (Genbank registered number NM_011281.2) (LBD sequences: from Ser253 to Lys518 for human RORγ; from Ile251 to Lys516 for mouse RORγ).
(§4) LBD cDNAs of human and mouse RORγ were inserted into pFA-CMV vector (Stratagene), which expresses GAL4-DNA binding domain fusion protein. The resulting plasmids are hereinafter referred to as GAL4-hRORγ plasmid and GAL4-mRORγ plasmid, respectively.
(§5) GAL4-hRORγ plasmid or GAL4-mRORγ plasmid was transiently co-transfected into Chinese hamster ovary cells (CHO cells) with pG5-Luc (Promega), reporter plasmid expressing firefly luciferase in a GAL4-dependent manner.
(§6) TransIT (Registered trademark) CHO Transfection Kit (Mirus) was used to co-transfect CHO cells with the plasmids. One day prior to the assay, CHO cells were suspended in HAM F-12 Nutrient medium containing 10% (v/v) fetal bovine serum and seeded at 6×10^6 cells per 175 cm^2 cell culture flask each. 54 μL of TransIT (Registered trademark) CHO reagent was added into a 15 mL tube containing 1.16 mL of HAM F-12 Nutrient medium without fetal bovine serum, and then mixed and incubated at room temperature for 10 minutes. 36 μL of a plasmid solution containing 400 ng of GAL4-hRORγ plasmid, 9000 ng of pG5-Luc plasmid, and 8600 ng of pcDNA3 plasmid were added into the tube and mixed gently. In the case of mouse assay, a plasmid solution containing 250 ng of GAL4-mRORγ plasmid, 9000 ng of pG5-Luc plasmid, and 8750 ng of pcDNA3 plasmid was added, instead. The mixture was incubated at room temperature for 10 minutes. 9 μL each of CHO Mojo Reagent were then added into each tube and mixed gently. The mixture was incubated at room temperature for 10 minutes. The resulting transfection reagent was applied to the cell culture. After incubation at 37° C., 5% CO2 for 4 hours, the plasmid-transfected CHO cells were harvested by trypsin treatment. The collected cells were resuspended in culture medium and plated into a 384-well-white plate at 8,000 cells/50 μL/well. The plate was let stand at room temperature for 1 hour and then further incubated at 37° C., 5% CO2 for 3 hours. A test compound was dissolved in DMSO to obtain a concentration of 10 mM. Each solution was serially diluted with DMSO and further diluted with culture medium just before use. The test compound solutions were added. to the cells in the plate at 8 different concentrations. The final concentration of DMSO was 0.2% (v/v). After the addition of test compound, the cells were incubated at […], 5% CO2 for 2 days.
(§7) RORγ transcriptional activity was detected as the intracellular luciferase activity using SteadyLite HTS Reporter Gene Assay System (Perkin Elmer). SteadyLite Reagent was diluted five-fold with Extension buffer (10 mM Tricine, 0.2% (w/v) bovine serum albumin, 0.02% (v/v) Tween-20) to obtain a luciferase substrate solution. After the measurement of the cell viability with Resazurin, the medium was removed in the plate and the luciferase substrate solution was added thereto. After the incubation at room temperature for 10 minutes, luminescence of each well was measured with a microplate reader. The luciferase activity derived from the luminescence count in a vehicle-control well treated with 0.2% DMSO alone was defined as 100%, and the luciferase activity after treatment with the test compound was calculated as a percentage, %-of-control, based on the value of the vehicle-control. An EC50 value of the test compound was calculated by curve fitting with GraphPad Prism. The luminescence counts at the concentration of test compound where cytotoxicity was observed were excluded from data analysis. […]

For experiment [2], the target named is T2, mouse RORγ (Mus musculus, UniProt P51450).
T2 construct: from Ile251 to Lys516 for mouse RORγ; expressed in transfected cells; host or cells: CHO cells (transient co-transfection with pG5-Luc)
T2 sequence (P51450 251-516): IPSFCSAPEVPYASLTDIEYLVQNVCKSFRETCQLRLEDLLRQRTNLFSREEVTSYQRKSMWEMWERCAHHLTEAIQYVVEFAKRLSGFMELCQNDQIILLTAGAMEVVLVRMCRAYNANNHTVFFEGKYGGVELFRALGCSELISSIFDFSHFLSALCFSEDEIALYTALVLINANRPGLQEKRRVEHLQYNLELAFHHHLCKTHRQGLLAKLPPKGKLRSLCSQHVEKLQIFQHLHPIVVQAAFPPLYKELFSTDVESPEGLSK
The experiment in a line: In-vitro reporter gene assay for inhibitory activity against RORγ transcription, Test Method A (GAL4-mRORγ LBD / pG5-Luc in CHO cells). The following applies: luciferase reporter, 2 days. The class given is cell-based. The procedure:
as §1, §2, §3, §4, §5, §6, §7

What is called EC50 is the concentration at which the effect is half-maximal. A high value points to weaker potency. As to `COC1CC[C@@]2(c3ccc(CCC(C)(C)C)c(Cl)c3)NC(=O)N(C34CC(C(=O)O)(C3)C4)C=C2C1` (single isomer, unassigned) [Example 77], the results for the EC50 in experiment [1] and in experiment [2] were 0.024 µM and 0.031 µM, respectively.
On the same counts, the results for `CC(C)(C)CCc1ccc(C23CC(C)(C)CCC2=CN(CCC(=O)O)C(=O)N3)cc1Cl` (racemic) [Example 64] are 0.034 µM and 0.052 µM.
As for `CC(C)(C)CCc1ccc(C23CCC(C)(C)C2=CN(CCCC(=O)O)C(=O)N3)cc1` (racemic) [Example 2], the EC50 in experiment [1] is 0.03 µM; in experiment [2], 0.022 µM.
On to `CC(C)(C)CCc1ccc(C23CCC(CCOCc4ccccc4)C2=CN(CCC(=O)O)C(=O)N3)cc1Cl` (single isomer, unassigned) [Example 26], for which the EC50 was found to be 0.351 µM in experiment [1] and 0.243 µM in experiment [2].
The matching figures for `CC(C)(C)CCc1ccc([C@]23COC(CO)C2=CN(CCC(=O)O)C(=O)N3)cc1Cl` (single isomer, unassigned) [Example 17]: greater than 20 µM and greater than 20 µM.
The matching figures for `COC1CC[C@]2(c3ccc(CCC(C)(C)C)c(Cl)c3)NC(=O)N(CCC(=O)O)C=C2C1` (single isomer, unassigned) [Example 67]: 4.72 µM and 8.34 µM.
As for `CC(C)(C)CCc1ccc([C@@]23COC(COCc4ccccc4)C2=CN(CCC(=O)O)C(=O)N3)cc1Cl` (single isomer, unassigned) [Example 16], the EC50 was 0.755 µM in experiment [1] and 0.774 µM in experiment [2].
For the compound `COCCC1CCC2(c3ccc(CCC(C)(C)C)c(Cl)c3)NC(=O)N(CCC(=O)O)C=C12` (single isomer, unassigned) [Example 27, 3-{7a-[3-Chloro-4-(3,3-dimethyl-butyl)phenyl]-5-(2-methoxy-ethyl)-2-oxo-1,2,5,6,7,7a-hexahydro-cyclopentapyrimidin-3-yl}propionate], the EC50 in experiment [1] was determined as 0.027 µM; in experiment [2], 0.039 µM.
The matching figures for `CC(C)(C)CCc1ccc(C23CCC(C)(C)C2=CN(c2ccc(C(=O)O)cc2)C(=O)N3)cc1Cl` (single isomer, unassigned) [Example 10, 4-{7a-[3-Chloro-4-(3,3-dimethyl-butyl)phenyl]-5,5-dimethyl-2-oxo-1,2,5,6,7,7a-hexahydro-cyclopentapyrimidin-3-yl}benzoic acid]: 0.016 µM and 0.03 µM.
`CC(C)(C)CCc1ccc(C23CCC(CO)C2=CN(CCC(=O)O)C(=O)N3)cc1Cl` (single isomer, unassigned) [Example 29]: the EC50 in experiment [1] was determined as 0.173 µM; in experiment [2], 0.103 µM.
The matching figures for `CC(C)(C)CCc1ccc(C23CCCC(CCOS(C)(=O)=O)C2=CN(CCC(=O)O)C(=O)N3)cc1Cl` (racemic) [Example 48]: 1.99 µM and 1.87 µM.
On the same counts, the results for `CC(C)(C)CCOc1ccc(C23CCCCC2=CN(CCC(=O)O)C(=O)N3)cc1Cl` (racemic) [Example 61] are 0.106 µM and 0.068 µM.
On the same counts, the results for `CC1CC[C@@]2(c3ccc(CCC(C)(C)C)c(Cl)c3)NC(=O)N(CCC(=O)O)C=C2C1` (single isomer, unassigned) [Example 81] are 0.013 µM and 0.019 µM.
Turning to `COC1CC[C@]2(c3ccc(CCC(C)(C)C)c(Cl)c3)NC(=O)N(C34CC(C(=O)O)(C3)C4)C=C2C1` (single isomer, unassigned) [Example 76], the EC50 was 2.41 µM in experiment [1] and 3.03 µM in experiment [2].
Turning to `CC(C)(C)CCc1ccc(C23CCC(CC#N)C2=CN(CCC(=O)O)C(=O)N3)cc1Cl` (racemic) [Example 31], the concentration giving a half-maximal response (EC50) in experiment [1] and in experiment [2] was 0.048 µM throughout.
On to `CC(C)(C)CCc1ccc([C@]23CCCCC2=CN(C24CC(C(=O)O)(C2)C4)C(=O)N3)cc1Cl` [Example 53], for which the EC50 in experiment [1] was greater than 3.2 µM; in experiment [2] it was 2.73 µM.
As for `CC(C)(C)CCc1ccc([C@@]23COC(CO)C2=CN(CCC(=O)O)C(=O)N3)cc1Cl` (single isomer, unassigned) [Example 18], the figures for the concentration giving a half-maximal response (EC50) in experiment [1] and in experiment [2] were 0.773 µM and 0.452 µM, respectively.
The matching figures for `O=C(O)CCN1C=C2CCCCC2(c2ccc(OCC3(C(F)(F)F)CC3)c(Cl)c2)NC1=O` (racemic) [Example 65]: 1.16 µM and 0.16 µM.
On to `CC(=O)NCC1CCC2(c3ccc(CCC(C)(C)C)c(Cl)c3)NC(=O)N(CCC(=O)O)C=C12` (racemic) [Example 30], for which the EC50 in experiment [1] and in experiment [2] was greater than 20 µM each time.
Regarding `CC1CCC[C@@]2(c3ccc(CCC(C)(C)C)c(Cl)c3)NC(=O)N(C34CC(C(=O)O)(C3)C4)C=C12` (single isomer, unassigned) [Example 79], the EC50 in experiment [1] was 0.018 µM; in experiment [2], 0.022 µM.
For the compound `CCOC(=O)CCN1C=C2C(CCN(C)C)CCCC2(c2ccc(CCC(C)(C)C)c(Cl)c2)NC1=O` (racemic) [Example 50], the EC50 was greater than 8 µM in experiment [1] and 7.48 µM in experiment [2].
On the same counts, the results for `CC(C)(C)CCc1ccc(C23CCCC(CCO)C2=CN(CCC(=O)O)C(=O)N3)cc1Cl` (racemic) [Example 44] are 1.27 µM and 0.482 µM.
The matching figures for `CC1CCC2(c3ccc(CCC(C)(C)C)c(Cl)c3)NC(=O)N(CCC(=O)O)C=C2C1` (single isomer, unassigned) [Example 69]: 0.015 µM and 0.027 µM.
On the same counts, the results for `C[C@H]1CC2=CN(CCC(=O)O)C(=O)NC2(c2ccc(CCC(C)(C)C)c(Cl)c2)CO1` (single isomer, unassigned) [Example 70] are 0.541 µM and 0.516 µM.
In the case of `CC1CCCC2(c3ccc(CCC(C)(C)C)c(Cl)c3)NC(=O)N(C34CC(C(=O)O)(C3)C4)C=C12` (racemic) [Example 73], the EC50 stood at 0.014 µM in experiment [1] and 0.027 µM in experiment [2].
The matching figures for `CC(C)(C)CCc1ccc(C23CC(C)(C)CC2=CN(CCC(=O)O)C(=O)N3)cc1Cl` (single isomer, unassigned) [Example 32]: 0.021 µM and 0.018 µM.
In the case of `CC(C)(C)CCc1ccc([C@]23CCCCC2=CN(CCC(=O)O)C(=O)N3)cc1Cl` (single isomer, unassigned) [Example 40], the EC50 worked out at 4.64 µM in experiment [1] and 5.33 µM in experiment [2].
The matching figures for `CC(C)(C)CCc1ccc(C23CCC(C)(C)CC2=CN(CCC(=O)O)C(=O)N3)cc1Cl` (racemic) [Example 74]: 0.016 µM and 0.024 µM.
